Calls of active or inactive are those of the source. No rule for the calls is given here.

This data set has as its system rodent carcinogenicity bioassays, tumor incidence. The data set can be described thus: CCRIS carcinogenicity studies. The following applies: Species: MOUSE. In short, it runs like this:
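Archive of carcinogenicity, mutagenicity, tumor promotion and tumor inhibition results drawn from journals, NCI reports and other sources, expert-reviewed; covers 1985-2011 and is no longer updated.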

With `c1ccc2c(c1)cc1ccc3cccc4ccc2c1c34`, the carcinogen call is, setting by setting: (Strain/Sex: C3H/MALE, Route: DERMAL, Dose: 0.15-470 UG, 3/WK FOR LIFE, Tumor Site: Type of Lesion: INTEGUMENTARY SYSTEM (SKIN)) “active; positive”; (Strain/Sex: C3H/MALE, Route: SUBCUTANEOUS, Dose: 0.00195-8.0 MG, SINGLE DOSE, Tumor Site: Type of Lesion: INJECTION SITE: SARCOMA) “active; positive”; (Strain/Sex: C3H, Route: DERMAL, Dose: 0.00002-0.02%, 3/WK FOR UP TO 80 WK, Tumor Site: Type of Lesion: INTEGUMENTARY SYSTEM (SKIN)) “active; positive”; (Strain/Sex: C57BL/FEMALE, Route: INTRATRACHEAL, Dose: 0, 1 MG ON CHARCOAL POWDER INSTILLED 8 TIMES (STUDY DURATION: 13 WK), Tumor Site: Type of Lesion: LUNG: SQUAMOUS CELL CARCINOMA OR ADENOCARCINOMA) “active; positive”; (Strain/Sex: C57BL/FEMALE, Route: SUBCUTANEOUS, Dose: 0, 0.5, 1 MG IN 1% AQUEOUS GELATIN INJECTED IN THE SCAPULAR REGION OF NEWBORN MICE ONCE (STUDY DURATION: 9 WK), Dose: 0, 0.5, 1 MG IN 1% AQUEOUS GELATIN INJECTED IN THE SCAPULAR REGION OF NEWBORN MICE ONCE (STUDY DURATION: 9 WK)) “inactive; negative”; (Strain/Sex: C57BL/MALE, Route: SUBCUTANEOUS, Dose: 0, 0.5, 1 MG IN 1% AQUEOUS GELATIN INJECTED IN THE SCAPULAR REGION OF NEWBORN MICE ONCE (STUDY DURATION: 9 WK), Dose: 0, 0.5, 1 MG IN 1% AQUEOUS GELATIN INJECTED IN THE SCAPULAR REGION OF NEWBORN MICE ONCE (STUDY DURATION: 9 WK)) “inactive; negative”. The carcinogen call reads like this: (Strain/Sex: C57BL, Route: DERMAL, Dose: 0.0001-0.5%, 3/WK, Tumor Site: Type of Lesion: INTEGUMENTARY SYSTEM (SKIN)) “active; positive”; (Strain/Sex: C57BL, Route: SUBCUTANEOUS, Dose: 0.00004, 0.0004, 0.004, 0.04 MG, SINGLE DOSE, Tumor Site: Type of Lesion: INJECTION SITE: SARCOMA) “active; positive”; (Strain/Sex: C57BR/CDJ/FEMALE, Route: SUBCUTANEOUS, Dose: 0, 0.5, 1 MG IN 1% AQUEOUS GELATIN INJECTED IN THE SCAPULAR REGION OF NEWBORN MICE ONCE (STUDY DURATION: 9 WK), Dose: 0, 0.5, 1 MG IN 1% AQUEOUS GELATIN INJECTED IN THE SCAPULAR REGION OF NEWBORN MICE ONCE (STUDY DURATION: 9 WK)) “inactive; negative”; (Strain/Sex: C57BR/CDJ/MALE, Route: SUBCUTANEOUS, Dose: 0, 0.5, 1 MG IN 1% AQUEOUS GELATIN INJECTED IN THE SCAPULAR REGION OF NEWBORN MICE ONCE (STUDY DURATION: 9 WK), Dose: 0, 0.5, 1 MG IN 1% AQUEOUS GELATIN INJECTED IN THE SCAPULAR REGION OF NEWBORN MICE ONCE (STUDY DURATION: 9 WK)) “inactive; negative”; (Strain/Sex: CAF1, Route: DERMAL, Dose: 0.0005, 0.001, 0.5%, 3/WK, Tumor Site: Type of Lesion: INTEGUMENTARY SYSTEM (SKIN): PAPILLOMA) “active; positive”; (Strain/Sex: CFW/MALE, FEMALE, Route: ORAL, Dose: 30-250 PPM IN DIET FOR 70-197 D, Tumor Site: Type of Lesion: STOMACH) “active; positive”. Also, the carcinogen call was “active; positive” (Strain/Sex: CFW/MALE, FEMALE, Route: ORAL, Dose: 250 PPM IN DIET FOR 1-30 D, OBSERVED UNTIL 103-107 D, Tumor Site: Type of Lesion: FORESTOMACH); “active; positive” (Strain/Sex: CFW, Route: SUBCUTANEOUS, Dose: 0.001-2 MG, SINGLE DOSE, Tumor Site: Type of Lesion: INJECTION SITE: FIBROSARCOMA); “inactive; negative” (Strain/Sex: DBA/2/FEMALE, Route: INTRATRACHEAL, Dose: 0, 1 MG ON CHARCOAL POWDER INSTILLED 8 TIMES (STUDY DURATION: 13 WK)); “active; positive” (Strain/Sex: EU-PIM-1/MALE, Route: GAVAGE, Dose: 0, 4.3, 13, 39 MG/KG BW IN 0.1 ML SOY OIL 3/WK FOR 13 WK (STUDY DURATION: 291 D), Dose: 0, 4.3, 13, 39 MG/KG BW IN 0.1 ML SOY OIL 3/WK FOR 13 WK (STUDY DURATION: 291 D), Tumor Site: Type of Lesion: LYMPHATIC SYSTEM: LYMPHOMA, FORESTOMACH: TUMOR); “active; positive” (Strain/Sex: ICR/FEMALE, Route: INTRAPERITONEAL, Dose: 0, 59.5 UG TOTAL DOSE (8.5 UG/5 µL, 17 UG/10 µL, 34 UG/20 µL DMSO ON DAYS 1, 8 AND 15) ADMINISTERED TO NEWBORN ANIMALS (, Tumor Site: Type of Lesion: LUNG: ADENOMA); “active; positive” (Strain/Sex: ICR/MALE, Route: INTRAPERITONEAL, Dose: 0, 59.5 UG TOTAL DOSE (8.5 UG/5 µL, 17 UG/10 µL, 34 UG/20 µL DMSO ON DAYS 1, 8 AND 15) ADMINISTERED TO NEWBORN ANIMALS (, Tumor Site: Type of Lesion: LUNG: ADENOMA). For the same compound, the carcinogen call runs as follows: (Strain/Sex: N:GP(S)/FEMALE, Route: INTRATRACHEAL, Dose: 0, 1 MG ON CHARCOAL POWDER INSTILLED 8 TIMES (STUDY DURATION: 13 WK)) “inactive; negative”; (Strain/Sex: N:GP(S)/FEMALE, Route: SUBCUTANEOUS, Dose: 0, 40, 62.5, 125, 250, 500, 1000 UG FOR 9 WK (STUDY DURATION: 9 WK), Dose: 0, 40, 62.5, 125, 250, 500, 1000 UG FOR 9 WK (STUDY DURATION: 9 WK), Tumor Site: Type of Lesion: LUNG: ADENOMA) “active; positive”; (Strain/Sex: N:GP(S)/MALE, Route: SUBCUTANEOUS, Dose: 0, 40, 62.5, 125, 250, 500, 1000 UG FOR 9 WK (STUDY DURATION: 9 WK), Dose: 0, 40, 62.5, 125, 250, 500, 1000 UG FOR 9 WK (STUDY DURATION: 9 WK), Tumor Site: Type of Lesion: LUNG: ADENOMA) “active; positive”.
